# Data from US9976141B2, “Compositions and methods for inhibiting gene expression of Hif2alpha” (Arrowhead Madison Inc., priority 2015, dated 2018).
# Values joined by “and” are separate entries in the source; they are usually repeats but may differ in a detail not shown here. Identical values can stand only once.
# What was measured:
# [1] = tested on: human (tumor) Hif2α (EPAS1) mRNA; test: Hif2α knockdown in orthotopic RCC tumor bearing mice, single injection of RNAi trigger-delivery polymer conjugate, RT-qPCR (Table 7); format: in vivo; conditions: single tail vein injection, relative to isotonic glucose
# Summary of the method: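 A single intravenous dose of Hif2α RNAi trigger–delivery polymer conjugate, or isotonic glucose vehicle, was given to nude mice with subcapsular A498-SEAP renal tumours (about 5–6 weeks old). At the indicated time, tumour RNA was assayed by biplex TaqMan qPCR against CycA, and relative expression was calculated by ΔΔCT versus vehicle.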
# [2] = tested on: human (tumor) Hif2α (EPAS1) mRNA; test: Hif2α expression in RCC tumor bearing mice after single injection of RGD targeted conjugates, 72 h, RT-qPCR (Table 11); format: in vivo
# Method: Female athymic nude mice were anesthetized with ˜3% isoflourane and placed in the right lateral decubitus position. A small, 0.5-1 cm, longitudinally abdominal incision in the left flank was made. Using a moist cotton swab, the left kidney was lifted out of the peritoneum and gently stabilized. Just before injection, a 1.0 ml syringe was filled with the cell/Matrigel mixture and a 27 gauge needle catheter was attached to the syringe tip. The filled syringe was then attached to a syringe pump (Harvard Apparatus, model PHD2000) and primed to remove air. The tip of a 27-gauge needle catheter attached to a syringe was inserted just below the renal capsule near the caudal pole and the tip of the needle was then carefully advanced cranially along the capsule 3-4 mm. A 10 μl aliquot of 2:1 (vol:vol) cell/matrigel mixture containing about 300,000 cells was slowly injected into the kidney parenchyma using a syringe pump. The needle was left in the kidney for 15-20 seconds to ensure the injection was complete. The needle was then removed from the kidney and a cotton swab was placed over the injection site for 30 seconds to prevent leakage of the cells or bleeding. The kidney was then gently placed back into the abdomen and the abdominal wall was closed. Serum was collected every 7-14 days after implantation to monitor tumor growth using a commercial SEAP assay kit. For most studies, tumor mice were used 5-6 weeks after implantation, when tumor measurements were typically around 4-8 mm.
# In preparation for quantitative PCR, total RNA was isolated from tissue samples homogenized in TriReagent (Molecular Research Center, Cincinnati, Ohio) following the manufacturer's protocol. Approximately 500 ng RNA was reverse-transcribed using the High Capacity cDNA Reverse Transcription Kit (Life Technologies). For human (tumor) Hif2α (EPAS1) expression, pre-manufactured TaqMan gene expression assays for human Hif2α (Catalog #4331182) and CycA (PPIA) Catalog #: 4326316E) were used in biplex reactions in triplicate using TaqMan Gene Expression Master Mix (Life Technologies) or VeriQuest Probe Master Mix (Affymetrix). For human (tumor) VegFa (VEGFA) expression, pre-manufactured TaqMan gene expression assays for human VegFa (Catalog #4331182, Assay ID: Hs00900055) and CycA (Part#: 4326316E) were used in biplex reactions in triplicate using TaqMan Gene Expression Master Mix (Life Technologies) or VeriQuest Probe Master Mix (Affymetrix). Quantitative PCR was performed by using a 7500 Fast or StepOnePlus Real-Time PCR system (Life Technologies). The ΔΔCT method was used to calculate relative gene expression.
# RGD targeted HiF2α-RNAi trigger delivery polymer conjugates were formed using polymer 126, 100A, or 006. The RNAi trigger, μg indicates the quantity of trigger reacted with polymer. The polymer was modified with the indicated RGD mimic and PEG modifying agents as described above. Kidney RCC tumor-bearing mice were generated as described and treated with a single tail vein injection of isotonic glucose (G1) or the indicated Hif2α RNAi trigger-delivery polymer conjugate. Mice were euthanized 72 h (day 4) after injection and total RNA was prepared from kidney tumor using Trizol reagent following manufacturer's recommendation. Relative HiF2α mRNA levels were determined by RT-qPCR as described and compared to mice treated with delivery buffer (isotonic glucose) only (Table 11).
substance,measurement,setting,value
"AD01214 (antisense TUUCAUGAAAUCGUUACGUTT; sense ACGUAACGAUUUCAUGAAAT; Hif2alpha RNAi agent antisense strand; modified_base 2,4,6,8,10,12,14,16,18 /mod_base = “2′-deoxy-2′-fluoro corresponding nucleoside”; modified_base 3,5,7,9,11,13,15,17,19 /mod_base = “2′-O-methyl corresponding nucleoside”; modified_base 21 /mod_base = “5′-phosphorothioate corresponding nucleotide”; Hif2alpha RNAi agent sense strand; modified_base 1,3,5,7,9,11,13,15,17,19 /mod_base = “2′-deoxy-2′-fluoro corresponding nucleoside”; modified_base 2,4,6,8,10,12,14,16,18 /mod_base = “2′-O-methyl corresponding nucleoside”; modified_base 20 /mod_base = “3′-3′-linked nucleotide”; modified_base 1 /mo)",Relative Expression day 4 (Hif2α mRNA in kidney tumor),"[1]; RNAi trigger 80 μg, polymer 126 400 μg",0.29
same,Relative Expression day 4 (Hif2α mRNA in kidney tumor),"[1]; RNAi trigger 112.5 μg, polymer 006 300 μg",0.36
same,Relative Expression day 4 (Hif2α),"[2]; trigger 80 μg, polymer 126 280 μg, TFF, RGD-PEG8-HyNic 0.5×, PEG12-FCit-PABC-PNP",0.489
same,Relative Expression day 4 (Hif2α),"[2]; trigger 80 μg, polymer 126 280 μg, RGD-PEG8-ACit-PABC-PNP 0.4×, PEG6-ACit-PABC-PNP",0.360
same,Relative Expression day 4 (Hif2α),"[2]; trigger 80 μg, polymer 126 280 μg, RGD-PEG8-ACitFP-NHS 1×, PEG6-ACit-PABC-PNP",0.288
same,Relative Expression day 4 (Hif2α),"[2]; trigger 80 μg, polymer 126 280 μg, RGD-PEG8-HyNic 0.5×, PEG12-FCitFP-TFP",0.210
same,Relative Expression day 4 (Hif2α),"[2]; trigger 112.5 μg, polymer 006 300 μg, RGD-PEG8-HyNic, PEG12-ACit-PABC-PNP",0.357
same,Relative Expression day 4 (Hif2α),"[2]; trigger 112.5 μg, polymer 100A 375 μg, TFF, RGD-PEG15-FCitFP-TFP 0.5×, no. 10.8, PEG12-ACit-PABC-PNP",0.193
same,Relative Expression day 4 (Hif2α),"[2]; trigger 112.5 μg, polymer 100A 375 μg, TFF, RGD-PEG15-FCitFP-TFP 1×, no. 16.1, PEG12-ACit-PABC-PNP",0.182
same,Relative Expression day 4 (Hif2α),"[2]; trigger 112.5 μg, polymer 100A 375 μg, TFF, RGD-PEG15-FCitFP-TFP 2×, no. 29.0, PEG12-ACit-PABC-PNP",0.182
same,Relative Expression day 4 (Hif2α),"[2]; trigger 112.5 μg, polymer 100A 375 μg, TFF, RGD-PEG19-FCitFP-TFP 0.5×, no. 10.7, PEG12-ACit-PABC-PNP",0.163
same,Relative Expression day 4 (Hif2α),"[2]; trigger 112.5 μg, polymer 100A 375 μg, TFF, RGD-PEG19-FCitFP-TFP 1×, no. 18.5, PEG12-ACit-PABC-PNP",0.114
same,Relative Expression day 4 (Hif2α),"[2]; trigger 112.5 μg, polymer 100A 375 μg, TFF, RGD-PEG19-FCitFP-TFP 2×, no. 31.1, PEG12-ACit-PABC-PNP",0.182
same,Relative Expression day 4 (Hif2α),"[2]; trigger 112.5 μg, polymer 100A 375 μg, TFF, RGD-PEG20-FCitFP-TFP 0.125×, no. 1.9, PEG12-ACit-PABC-PNP",0.169
same,Relative Expression day 4 (Hif2α),"[2]; trigger 112.5 μg, polymer 100A 375 μg, TFF, RGD-PEG20-FCitFP-TFP 0.25×, no. 3.4, PEG12-ACit-PABC-PNP",0.168
same,Relative Expression day 4 (Hif2α),"[2]; trigger 112.5 μg, polymer 100A 375 μg, TFF, RGD-PEG20-FCitFP-TFP 0.5×, no. 6.6, PEG12-ACit-PABC-PNP",0.130
same,Relative Expression day 4 (Hif2α),"[2]; trigger 112.5 μg, polymer 100A 375 μg, TFF, RGD-PEG20-FCitFP-TFP 1×, no. 12.7, PEG12-ACit-PABC-PNP",0.121
same,Relative Expression day 4 (Hif2α),"[2]; trigger 112.5 μg, polymer 100A 375 μg, TFF, RGD-PEG20-FCitFP-TFP 1.5×, no. 20.3, PEG12-ACit-PABC-PNP",0.135
same,Relative Expression day 4 (Hif2α),"[2]; trigger 112.5 μg, polymer 100A 375 μg, RGD-PEG19-FCitFP-TFP 1×, PEG12-ACit-PABC-PNP",0.195
same,Relative Expression day 4 (Hif2α),"[2]; trigger 112.5 μg, polymer 100A 375 μg, RGD-PEG19-FCitFP-TFP 1×, PEG12-FCitFP-TFP",0.148 and 0.188
same,Relative Expression day 4 (Hif2α),"[2]; trigger 115 μg, polymer 100A 375 μg, RGD-PEG8-HyNic 0.5×, PEG12-FCitFP-TFP",0.258
